Structure (SMILES)	melting point [°C]
CCOC(=O)C(CC)Sc1nc2c(c(=O)n(C)c(=O)n2C)n1Cc1ccccc1 (racemic) [Compound 1, ethyl 2-[(7-benzyl-1,3-dimethyl-2,6-dioxo-2,3,6,7-tetrahydro-1H-purin-8-yl)thio]butanoate]	72
CCOC(=O)C(CC)Sc1nc2c(c(=O)n(CCOC)c(=O)n2C)n1Cc1cccc(Br)c1 (racemic) [Compound 3, ethyl 2-{[7-(3-bromobenzyl)-1-(2-methoxyethyl)-3-methyl-2,6-dioxo-2,3,6,7-tetrahydro-1H-purin-8-yl]thio}butanoate]	58
CCOC(=O)C(CC)Sc1nc2[nH]c(=O)[nH]c(=O)c2n1Cc1cccc(Br)c1 (racemic) [Compound 4, ethyl 2-{[7-(3-bromobenzyl)-2,6-dioxo-2,3,6,7-tetrahydro-1H-purin-8-yl]thio}butanoate]	90.1
CCOC(=O)C(CC)Sc1nc2c(c(=O)n(C)c(=O)n2C)n1Cc1cccc(Br)c1 (racemic) [Compound 5, ethyl 2-{[7-(3-bromobenzyl)-1,3-dimethyl-2,6-dioxo-2,3,6,7-tetrahydro-1H-purin-8-yl]thio}butanoate]	76
CCOC(=O)C(CC)Sc1nc2c(c(=O)n(C)c(=O)n2C)n1Cc1ccccc1Br (racemic) [Compound 6, ethyl 2-{[7-(2-bromobenzyl)-1,3-dimethyl-2,6-dioxo-2,3,6,7-tetrahydro-1H-purin-8-yl]thio}butanoate]	101
CCOC(=O)C(CC)Sc1nc2c(c(=O)n(CC#N)c(=O)n2C)n1Cc1cccc(Br)c1 (racemic) [Compound 7, ethyl 2-{[7-(3-bromobenzyl)-1-(cyanomethyl)-3-methyl-2,6-dioxo-2,3,6,7-tetrahydro-1H-purin-8-yl]thio}butanoate]	84
C#CCn1c(=O)c2c(nc(SC(CC)C(=O)OCC)n2Cc2cccc(Br)c2)n(C)c1=O (racemic) [Compound 11, ethyl 2-{[7-(3-bromobenzyl)-3-methyl-2,6-dioxo-1-(2-propynyl)-2,3,6,7-tetrahydro-1H-purin-8-yl]thio}butanoate]	97
CCOC(=O)C(CC)Sc1nc2c(c(=O)[nH]c(=O)n2C)n1Cc1cccc(OC)c1 (racemic) [Compound 12, ethyl 2-{[7-(3-methoxybenzyl)-3-methyl-2,6-dioxo-2,3,6,7-tetrahydro-1H-purin-8-yl]thio}butanoate]	115

Next, values leading:

melting point [°C]	Structure (SMILES)
147	CCOC(=O)C(CC)Sc1nc2c(c(=O)[nH]c(=O)n2C)n1Cc1cccc([N+](=O)[O-])c1 (racemic) [Compound 13, ethyl 2-{[3-methyl-7-(3-nitrobenzyl)-2,6-dioxo-2,3,6,7-tetrahydro-1H-purin-8-yl]thio}butanoate]
107	CCOC(=O)C(CC)Sc1nc2c(c(=O)[nH]c(=O)n2C)n1Cc1cccc(N)c1 (racemic) [Compound 14, ethyl 2-{[7-(3-aminobenzyl)-3-methyl-2,6-dioxo-2,3,6,7-tetrahydro-1H-purin-8-yl]thio}butanoate]
175.2	CCOC(=O)C(CC)Sc1nc2c(c(=O)[nH]c(=O)n2C)n1Cc1ccc(S(N)(=O)=O)cc1 (racemic) [Compound 15, ethyl 2-({7-[4-(aminosulfonyl)benzyl]-3-methyl-2,6-dioxo-2,3,6,7-tetrahydro-1H-purin-8-yl}thio)butanoate]
208	CCOC(=O)C(CC)Sc1nc2c(c(=O)[nH]c(=O)n2C)n1Cc1c(C)noc1C (racemic) [Compound 20, ethyl 2-({7-[(3,5-dimethylisoxazol-4-yl)methyl]-3-methyl-2,6-dioxo-2,3,6,7-tetrahydro-1H-purin-8-yl}thio)butanoate]
172	CCOC(=O)C(CC)Sc1nc2c(c(=O)[nH]c(=O)n2C)n1Cc1ccc([N+](=O)[O-])o1 (racemic) [Compound 21, ethyl 2-({3-methyl-7-[(5-nitro-2-furyl)methyl]-2,6-dioxo-2,3,6,7-tetrahydro-1H-purin-8-yl}thio)butanoate]
104	CCCCn1c(SC(CC)C(=O)OCC)nc2c1c(=O)[nH]c(=O)n2C (racemic) [Compound 22, ethyl 2-[(7-butyl-3-methyl-2,6-dioxo-2,3,6,7-tetrahydro-1H-purin-8-yl)thio]butanoate]
87	CCCCCCn1c(SC(CC)C(=O)OCC)nc2c1c(=O)[nH]c(=O)n2C (racemic) [Compound 25, ethyl 2-[(7-hexyl-3-methyl-2,6-dioxo-2,3,6,7-tetrahydro-1H-purin-8-yl)thio]butanoate]
244.15	CCC(Sc1nc2c(c(=O)[nH]c(=O)n2C)n1Cc1cccc(Br)c1)C(N)=O (racemic) [Compound 27, 2-{[7-(3-bromobenzyl)-3-methyl-2,6-dioxo-2,3,6,7-tetrahydro-1H-purin-8-yl]thio}butanamide]
253	CCCCn1c(SC(CC)C(N)=O)nc2c1c(=O)[nH]c(=O)n2C (racemic) [Compound 28, 2-[(7-butyl-3-methyl-2,6-dioxo-2,3,6,7-tetrahydro-1H-purin-8-yl)thio]butanamide]
132	CCOC(=O)C(CC)Sc1nc2c(c(=O)[nH]c(=O)n2C)n1CC(C)C (racemic) [Compound 31, ethyl 2-[(7-isobutyl-3-methyl-2,6-dioxo-2,3,6,7-tetrahydro-1H-purin-8-yl)thio]butanoate]
167	CCC(CC)Sc1nc2c(c(=O)[nH]c(=O)n2C)n1Cc1cccc(Br)c1 [Compound 29, 7-(3-bromobenzyl)-8-[(1-ethylpropyl)thio]-3-methyl-3,7-dihydro-1H-purine-2,6-dione]

Reference: US20090018148A1, “Xanthine Derivatives, Processes For Preparing Them And Their Uses” (UCB PHARMA, S.A., priority 2005, published 2009)
